Reference: article PMC12707061 (National Science Review, 2025)

Assays:
mice [1] = assay: TST, FST and OFT in mice with ketamine and pre-treatments; details: for locomotion and anxiety-like behaviors during the OFT: 1 h after injection; for effect of pre-treatment on ketamine's decrease of immobility in TST and FST: p-CPA i.p. once per day for 3 days, palonosetron into mPFC 0.5 h before ketamine
Experimental: Behavioral experiments were performed after 3-4 weeks of viral expression.
For behavioral experiments, C57BL/6 mice were recovered for at least 7 days before behavioral testing. Before micro-infusions, a 26-gauge internal injector with 3 mm projection was placed into the guide cannula, connected via PE tubing to a Hamilton micro-syringe driven by hand. […] The injector cannula was removed 3 min after infusion was finished, and corresponding behavioral tests were performed.
The mice were suspended in a computerized device allowing four animals to be recorded at one time, and were separated in a chamber, both acoustically and visually isolated. To ensure mice could not contact or climb with other things, an individual mouse was suspended 50 cm above the floor by a tail tape that was placed approximately 1 cm from the tip of the tail. The activities of the animals were recorded for 6 minutes by a video recorder. The total duration of immobility at the last 4 minutes of testing time was analyzed by one who was blinded to the test.
The FST apparatus was a clear glass tank (40 cm high and 20 cm in diameter) filled with water (25-26 °C), and the water depth was set to ensure mice could not touch the bottom with their tails or hind limbs. Mice were placed individually into the apparatus and allowed to swim for 6 minutes. The mice were considered immobile when floating in the water without struggling and making only those movements necessary to keep their heads above the water. Total immobility times during the last 4 minutes of the 6-minute testing period were analyzed by a researcher blinded to the test.
Mice were placed in a white open field chamber (38 x 38 x 40 cm) built by an acrylic plate in a room with dim light. The movement of each animal was tracked by a video camera positioned directly above the chamber (Jiliang, Shanghai). Time spent in the center zone of the chamber was a measure of anxiety behavior. Mice were allowed to move freely for 5 minutes in the arena. Total distance and center zone time were automatically analyzed by software (Jiliang, Shanghai).

mPFC VIP neurons [2] = assay: Patch-clamp recordings of mPFC VIP neurons in slices after in vivo drug injection; design: species or system mice; details: for resting membrane potential (RMP) of VIP neurons, average: saline controls −58.8 mV
Experimental: The brain was removed quickly after decapitation and immediately put into ice-cold oxygenated NMDG ACSF. A few minutes later, coronal slices containing the mPFC (300 μm thickness for mice) were sectioned in cold ACSF using a vibratome (VT1200 S, Leica) and then transferred into oxygenated NMDG ACSF at 32°C for incubation and recovery for 10–15 min. […] All chemicals were purchased from Sigma–Aldrich (St. Louis, MO, USA).
(§1) All drugs were dissolved in 0.9% saline and administered by intraperitoneal (i.p.) injection.
For in intro brain slices recording, AAV-Ef1α-DIO-mCherry virus was injected in the mPFC for labeling VIP neurons, and a 26-gauge double guide cannula (center-to-center distance 0.80 mm; RWD, China) was subsequently implanted in the same site of Vip-Cre mice.
For mPFC VIP neuron recordings, brain slices were transferred into the recording chamber filled with ACSF. VIP positive neurons were visualized with differential interference contrast optics (DIC, Olympus BX61WI). The recording pipettes (4-5 MΩ) were pulled with a micropipette puller (P97, Sutter Instrument; USA). […] When the whole-cell record was formed, to record the neuronal firing, the neurons were held at I=0 pA under current-clamp mode; to measure the intrinsic membrane properties, the same neurons were held at […] and spikes were induced by increases of current injection (each step was 5 pA, range –10-45 pA). All recordings were performed for 5 minutes typically.
The specific operation is as follows: using the Threshold search function in the Clampfit software Event Detection, setting the baseline and threshold for identifying the action potential, and then automatically identifying and measuring each action potential. The curve of firing was plotted using MATLAB. All events, including the spike numbers, were finally verified by eye.

[3] = test system: mPFC VIP neurons expressing the hM4Di receptor; assay: Cell-attached recording of hM4Di-expressing mPFC VIP neurons in brain slices; type: cell-based, mice; details: 10 μM
Experimental: In the chemogenetic inhibition assay, we injected the AAV-DIO-hM4Di-mCherry vector into the bilateral mPFC of VIP-Cre mice. […] Behavioral experiments were performed after mice had been allowed to recover for 3 weeks after viral injection (Fig. 5A).

mPFC VIP neurons [4] = assay: Whole-cell recordings of mPFC VIP neurons with bath application of drugs to brain slices; type: cell-based, mice; details: for activation (firing) of VIP neurons: bath application, 5-HT 5 μM, AP5 100 μM, slices from normal mice
Experimental: Adult (10–16 weeks old) VIP-Cre-expressing mCherry mice with or without a cannula were firstly anesthetized by being injected intraperitoneally with tribromoethanol (250 mg/kg) and then perfused transcardially with 20 mL of ice-cold N-methyl-D-glucamine (NMDG) artificial cerebrospinal fluid (ACSF) solution (oxygenated with 5% CO2 + 95% O2) containing (mM): 93 NMDG, 93 HCl, 2.5 KCl, 10 MgSO4·7H2O, 1.2 NaH2PO4·2H2O, 30 NaHCO3, 25 glucose, 20 HEPES, 5 sodium ascorbate, 3 sodium pyruvate and 2 thioureas, with 0.5 CaCl2·2H2O added (pH: 7.35, 303 mOsm). The brain was removed quickly after decapitation and immediately put into ice-cold oxygenated NMDG ACSF. A few minutes later, coronal slices containing the mPFC (300 μm thickness for mice) were sectioned in cold ACSF using a vibratome (VT1200 S, Leica) and then transferred into oxygenated NMDG ACSF at 32°C for incubation and recovery for 10–15 min. The brain slices were transferred to a normal oxygenated ACSF solution (126 mM NaCl, 2.5 mM KCl, 2 mM MgSO4·7H2O, 1.25 mM NaH2PO4·2H2O, 25 mM NaHCO3, 10 mM glucose, 2 mM CaCl2) at room temperature for 1 h. All chemicals were purchased from Sigma–Aldrich (St. Louis, MO, USA).
For mPFC VIP neuron recordings, brain slices were transferred into the recording chamber filled with ACSF. VIP positive neurons were visualized with differential interference contrast optics (DIC, Olympus BX61WI). The recording pipettes (4-5 MΩ) were pulled with a micropipette puller (P97, Sutter Instrument; USA). For whole-cell patch-clamp recording, the pipette was filled with an internal solution containing (mM) 133 potassium gluconate, 18 NaCl, 0.6 EGTA, 2 Mg·ATP, 0.3 Na3·GTP, 10 Hepes (pH: 7.20, 280-290 mOsm). […]
To investigate the underlying synergistic effects of 5-HT (5 μM, Sigma) and AP5 (100 μM, Sigma) on neuronal excitability and firing, the two drugs were alone or together continuously perfused into the recording chamber using a medicine delivery pipe after a baseline was recorded for 5 min. The spikes were recorded under […] 1 minute after the drugs were delivered. […]

mPFC 5-HT = assay: In vivo real-time microdialysis of mPFC 5-HT; design: species or system mice; details: i.p. 10 mg/kg; during the 15 min after injection; baseline ∼100%
SST neurons in the mPFC = assay: Activation/excitability of mPFC SST neurons after ketamine (c-Fos, patch-clamp); type: in vivo, mice; details: after ketamine injection
Experimental: (§2) VIP, parvalbumin (PV) and somatostatin (SST) neurons are the three main types of gamma-aminobutyric acid (GABA)ergic interneurons in the mPFC [63].
(§3) All mice were deeply anesthetized with an overdose of pentobarbital and then transcardially perfused with 0.9% saline solution followed by 4% paraformaldehyde (PFA) in PBS. After 24 h of post-fixation in 4% PFA overnight at 4 °C, brains were subsequently immersed in a 30% sucrose solution for dehydration for 24-48 h. Brains were sectioned coronally at a thickness of 40 μm with a Vibration Microtome (Leica VT1200S). Coronal brain sections were washed in PBS, blocking solution containing 0.5% Triton X-100 and 5% normal bovine serum albumin was dissolved in 1x PBS. After blocking for 1-2 h and washing, brain sections were incubated with the primary antibody rabbit polyclonal anti-c-Fos (1:1000, Synaptic system) for 48 h at 4 °C. After washing, these brain sections were incubated with secondary antibody Alexa Fluor 594-conjugated donkey anti-rabbit IgG (1:1000, Jackson ImmunoResearch) at […]. Cell nuclei were identified using the 4, 6-diamidino-2-phenylindole (DAPI) stain (1:10000, Jackson ImmunoResearch). Imaging was carried out with a digital slide scanner (Olympus, VS120-S6-W) and a confocal microscope (Nikon, Ti-E+A1R SI).

PV neurons in the mPFC = assay: Activation/excitability of mPFC PV neurons after ketamine (c-Fos, patch-clamp); type: in vivo, mice; details: after ketamine injection
Experimental: as §2, §3

[5] = test system: 5-HT neurons in the dorsal raphe nucleus (DRN); assay: c-Fos activation of DRN 5-HT neurons after ketamine; type: in vivo, mice; details: after ketamine injection
Experimental: as §3

VIP neurons in the mPFC = assay: c-Fos immunolabeling of mPFC VIP neurons after ketamine; type: in vivo, mice; details: antidepressant dose; 1.5 h after injection; average
Experimental: as §2, §3

mice [6] = assay: MK-801 alone and with fluoxetine: behavioural tests 24 h after injection; type: in vivo; details: single injection, alone
Experimental: as §1

[7] = palonosetron into mPFC before ketamine

## NC(Cc1ccc(Cl)cc1)C(=O)O (racemic) [p-CPA, 4-chloro-DL-phenylalanine]
Mice [1]
  locomotion and anxiety-like behaviors during the OFT: did not affect locomotion or cause anxiety-like behaviors
  effect of pre-treatment on ketamine's decrease of immobility in TST and FST: attenuated the ketamine-related decrease in the duration of immobility
mPFC VIP neurons [2]; 1 h after injection
  number of spikes in response to depolarizing current pulses: decreased
  resting membrane potential (RMP) of VIP neurons, average: −69.7 mV

## C[N+]1([O-])CCN(C2=Nc3cc(Cl)ccc3Nc3ccccc32)CC1 [CNO, clozapine N-oxide]
[3]
  mPFC VIP neuron activity in brain slices: significantly inhibited

## NC(CCCP(=O)(O)O)C(=O)O (centres unmarked) [AP5]
mPFC VIP neurons [4]
  activation (firing) of VIP neurons: did not activate VIP neurons
mPFC VIP neurons [2]; 1 h after injection
  resting membrane potential (RMP) of VIP neurons, average: –65.1 mV

## CC12CC3CC(C)(C1)CC(N)(C3)C2 [memantine]
mPFC 5-HT
  average relative-to-baseline 5-HT levels in the mPFC: did not show such an effect

## CNC1(c2ccccc2Cl)CCCCC1=O (centres unmarked) [ketamine]
SST neurons in the mPFC
  changes in electrophysiological characteristics of excitability of SST neurons: neither PV nor SST neurons showed any changes
PV neurons in the mPFC
  changes in electrophysiological characteristics of excitability of PV neurons: neither PV nor SST neurons showed any changes
mPFC VIP neurons [2]; 1 h after injection
  number of spikes in response to depolarizing current pulses: remarkable increase
  resting membrane potential (RMP) of VIP neurons, average: −44.2 mV
mPFC VIP neurons [2]; 1 h after injection, ketamine 10 mg/kg i.p., p-CPA 150 mg/kg once daily 3 days, AP5 40 nmol mPFC, fluoxetine 10 mg/kg i.p.
  percentage of firing VIP neurons: 75%
mPFC VIP neurons [2]; firing neurons after ketamine
  membrane capacitance of VIP neurons: no change in membrane capacitance
[5]
  activation of DRN 5-HT neurons: did not activate
VIP neurons in the mPFC
  VIP neurons activated (c-Fos+ among VIP neurons): 38.8%

## C[C@]12N[C@H](Cc3ccccc31)c1ccccc12 [MK-801]
Mice [6]
  antidepressant effects after 24 h: does not result in antidepressant effects

## CNCCC(Oc1ccc(C(F)(F)F)cc1)c1ccccc1 (centres unmarked) [fluoxetine]
Mice [6]
  antidepressant effects after 24 h: does not result in antidepressant effects

## NCCc1c[nH]c2ccc(O)cc12 [5-HT, serotonin]
mPFC VIP neurons [4]
  activation (firing) of VIP neurons: did not activate VIP neurons

## O=C1c2cccc3c2[C@H](CCC3)CN1[C@@H]1CN2CCC1CC2 [palonosetron]
Mice [1]
  locomotion and anxiety-like behaviors during the OFT: did not affect locomotion or cause anxiety-like behaviors
  effect of pre-treatment on ketamine's decrease of immobility in TST and FST: this effect was blocked
mPFC VIP neurons [4]; palonosetron 10 μM
  effect on VIP neuron activation by 5-HT combined with AP5: blocked the effect of 5-HT combined with AP5
mPFC VIP neurons [2]; palonosetron into mPFC 0.5 h before ketamine i.p., controls ∼10.5%
  percentage of firing VIP neurons: ~10%
mPFC VIP neurons [2]; [7]
  change in RMP of VIP neurons: no change in the RMP
  change in membrane capacitance of VIP neurons: moderate increase in membrane capacitance
  change in membrane resistance of VIP neurons: no change in membrane resistance
